Several values for one entry are separate records, joined by “and”; a condition that tells them apart may be missing. Identical values can stand only once.
What was measured:
[1] = system: p62; assay: Ex vivo pressure-loaded retinas, Western blot of p62; type: cell-based, rat; conditions: ex vivo, 75 mmHg; for p62 expression (FIG. 2S), individual experiments 1-5: 1 μM, relative units, 10 mmHg = 1.00
Procedure: (§1) Rat ex vivo Eyecup Preparation—Rat ex vivo eyecups were prepared from 28-32 day old male Sprague-Dawley rats (Charles River Laboratories International Inc., Wilmington, MA). The anterior half of the enucleated eyes was carefully removed to make eyecup preparations. Eyecups were placed at the bottom of a 100 ml glass beaker filled with aCSF (artificial cerebrospinal fluid) containing (in mM): 124 NaCl, 5 KCl, 2 MgSO4, 2 CaCl2, 1.25 NaH2PO4, 22 NaHCO3, and 10 glucose, and incubated at 30° C. for 24 hours using a closed pressure-loading system (FIG. 1C). pH was maintained at 7.35 to 7.40. In the closed-pressure system, a glass beaker with the eyecup was placed at the bottom of an acrylic pressure chamber (2,000 ml volume). A 95% O2-5% CO2 gas mixture was delivered through disposable plastic tubing with an infusion valve and a control dial on the lid of the pressure chamber and an air filter (Cat #SLGP033RS, Merck Millipore, Billerica, MA). The plastic tubing delivering the gas terminated 1 cm above the bottom of the beaker.
(§2) Acutely prepared eyecups were incubated in gassed aCSF for at least 1 h at 30° C. before pressure loading. In some experiments, AlloP (1 μM), ent-AlloP (1 μM), and 3-MA (10 mM) were dissolved in aCSF at the time of experiment and administered by bath perfusion. Eyecup preparations were treated with these drugs for 1 h at 30° C. before pressure loading. For pressure loading, the 95% O2-5% CO2 gas mixture was infused until the pressure reading given by a manometer reached the appropriate level. The pressure was then locked by adjusting the control dial of the effusion valve, and monitored continuously for 24 h at 30° C.
Western Blot Analysis—At the end of each experiment, the posterior segments of the eye were placed on a flat cutting surface and immersed in ice-cold aCSF. With a surgical blade, the retina was carefully and gently detached from the sclera with a fine forceps. The isolated retinas were frozen at −80° C. Retinas were then homogenized in lysis buffer solution (CelLytic MT; Sigma-Aldrich, Inc.) with protease inhibitor cocktail (Sigma-Aldrich, Inc.), prepared according to the manufacturer's instructions. The tissue extracts were ultrasonicated and clarified by centrifugation at 12,000 g for 20 minutes at 4° C. The protein concentrations in supernatants were assayed (Quant-iT assay kit; Invitrogen Corp., Carlsbad, CA). Twenty micrograms of retinal extract were subjected to SDS polyacrylamide gel electrophoretic analysis. The proteins were then transferred to a PVDF. Immunoblots by polyclonal rabbit anti-LC3B antibody (MBL Life Science) or anti-SQSTMl/p62 mouse monoclonal antibody (Abcam) were visualized using WesternBreeze Chemiluminescent Immunodetection system (Invitrogen) with the exposure time to autoradiograph film (MXJB Plus; Kodak, Rochester, NY) adjusted to avoid over- or undersaturation. Precision Plus Protein™ Western Standards (Bio-Rad, Hercules, CA) followed by Precision Protein™ strep Tactin-AP conjugate (Bio-Rad) was used for a molecular marker of LC3. […]
The density of Western blot bands was quantified using Image-Pro Plus software. Quantification was adjusted to protein expression at 10 mmHg after normalization to the β-actin band at each pressure, and the relative gray-scale value was calculated by densitometric analysis of the obtained bands. […] Differences in expression levels were evaluated using Wilcoxon Rank-Sum Test, Tukey's or Dunnett's multiple comparison test. […]

[2] = system: pressure-loaded ex vivo rat retinas; type: cell-based; conditions: 75 mmHg; for NDS (neuronal damage score) / NDS, Average: 0-4 scale; for NDS (neuronal damage score) / NFLT vs. RT (%) / Damaged cells in GCL: 24 h, mean±SD; for NDS (neuronal damage score) / NDS, Average / Damaged cells in GCL / NFLT, Average / Damaged cell, Average: neurosteroid 1 μM; for NDS, Average / NFLT, Average / Damaged cell, Average: Average of 9; for axonal swelling in the nerve fiber layer (NFL), light micrographs: 1 μM; for NFLT vs. RT (%): neurosteroid 1 μM (Picro 1 μM, 3-MA 10 mM where named); for Damaged cell, Average: GCL
Procedure: as §1, §2
Data analysis of morphometry—The middle portion of the retina was examined, greater than 1,200 μm away from the center of the optic disc along the inner limiting membrane (ILM). The nerve fiber layer thickness (NFLT) was measured by light microscopy along 5 lines perpendicular to the pigment epithelium at a distance of 15 μm from each other around 1,200 μm away from the center of the optic disc. The average NFLT was determined in 9 different light micrographs taken from 5 eyecup samples in each condition, divided by total retinal thickness, and mean±standard deviation (%) was analyzed and compared with control.
The density of degenerated cells characterized by nuclear chromatin clumping or necrosis in the GCL was determined by counting 9 fields of 500 μm length in light micrographs taken from the block of the middle retinal part 950 to 1450 μm away from the center of the optic disc.
The severity of neuronal damage was assessed by light microscopy using a neuronal damage score (NDS). The NDS was determined in 9 different light micrographs taken from 5 eyecup samples in each condition. The NDS rates neuronal damage in the inner nuclear layer (INL) and the inner plexiform layer (IPL) on a 0-4 scale with 0 signifying no neuronal damage and 4 indicating very severe damage. Criteria used in establishing the degree of neuronal damage included the extent of cytoplasmic swelling in the IPL and the number of neurons in the INL showing signs of severe cytoplasmic swelling and coarse clumping of nuclear chromatin. The highest NDS rating (4) is given when the IPL discloses apparent spongiform appearance due to dendritic swelling and when most cell bodies in the INL show severe cytoplasmic swelling and coarse clumping of nuclear chromatin. If the damage is of a lesser degree, a rating of 3 is given. NDS 2 is assigned when cell bodies in the INL are sporadically swollen. […] Fine dendritic swelling in a limited area of the IPL without damage in the INL is described by NDS 1.
NFLT, density of degenerated cells in the GCL, and NDS were determined as the measurement of 10 different areas from three eyes per experimental condition. These morphometrical parameters were assessed by three raters, who remained unaware of the experimental condition. […]

Row | SMILES | p62 expression (FIG. 2S), individual experiments 1-5 ([1]; single values) | NDS (neuronal damage score) [2] | NDS, Average [2] | axonal swelling in the nerve fiber layer (NFL), light micrographs [2] | NFLT vs. RT (%) [2] | Damaged cells in GCL [2] | NFLT, Average [2] | Damaged cell, Average [2] | p62 expression after 3-MA treatment (FIG. 3H), Average ([1]; 1 μM ent-AlloP, 10 mM 3-MA, relative, ent-AlloP = 1.00, Average of 4) | p62 expression after 3-MA treatment (FIG. 3H), individual experiments 1-4 ([1]; 1 μM ent-AlloP, 10 mM 3-MA, relative, ent-AlloP = 1.00, single values)
1 | CC(=O)[C@H]1CC[C@H]2[C@@H]3CC[C@H]4C[C@H](O)CC[C@]4(C)[C@H]3CC[C@]12C [AlloP, allopregnanolone] | 1.96 and 2.18 and 2.05 and 0.84 and 2.81 | 0.2 ± 0.4 | 0.2 | attenuated | 1.5 ± 0.6% | 2.0 ± 1.7 per 250 μm of retina | 1.5% | 2.0 | – | –
2 | CC(=O)[C@@H]1CC[C@@H]2[C@H]3CC[C@@H]4C[C@@H](O)CC[C@@]4(C)[C@@H]3CC[C@]21C [ent-AlloP, ent-allopregnanolone] | 0.92 and 0.40 and 1.00 and 0.28 and 1.08 | 0.2 ± 0.4 | 0.2 | substantially inhibited | 1.6 ± 0.6% | 1.9 ± 1.2 per 250 μm of retina | 1.6% | 1.9 | 1.00 | 1.00

Reference: US20240041898A9, “NEUROSTEROIDS AND ENANTIOMERS THEREOF FOR THE PREVENTION AND TREATMENT OF NEURODEGENERATIVE CONDITIONS” (priority 2019, published 2024)
